≈ marks a conversion by molar mass, not a printed value.
Key:
[1] = test system: Dirofilaria immitis larvae; assay: In Vitro Assay 3: Dirofilaria immitis (DIROIM L4) larval motility; type: cell-based; settings: 72 h, read-out: EC50 ppm
[2] = test system: Dirofilaria immitis microfilariae; assay: In Vitro Assay 2: Dirofilaria immitis microfilariae (DIROIM L1) motility; type: cell-based; settings: 72 h, read-out: EC50 ppm
C. elegans Slo-1a = C. elegans Slo-1a (Caenorhabditis elegans, UniProt Q95V25)
Sequence of C. elegans Slo-1a (Q95V25 whole entry): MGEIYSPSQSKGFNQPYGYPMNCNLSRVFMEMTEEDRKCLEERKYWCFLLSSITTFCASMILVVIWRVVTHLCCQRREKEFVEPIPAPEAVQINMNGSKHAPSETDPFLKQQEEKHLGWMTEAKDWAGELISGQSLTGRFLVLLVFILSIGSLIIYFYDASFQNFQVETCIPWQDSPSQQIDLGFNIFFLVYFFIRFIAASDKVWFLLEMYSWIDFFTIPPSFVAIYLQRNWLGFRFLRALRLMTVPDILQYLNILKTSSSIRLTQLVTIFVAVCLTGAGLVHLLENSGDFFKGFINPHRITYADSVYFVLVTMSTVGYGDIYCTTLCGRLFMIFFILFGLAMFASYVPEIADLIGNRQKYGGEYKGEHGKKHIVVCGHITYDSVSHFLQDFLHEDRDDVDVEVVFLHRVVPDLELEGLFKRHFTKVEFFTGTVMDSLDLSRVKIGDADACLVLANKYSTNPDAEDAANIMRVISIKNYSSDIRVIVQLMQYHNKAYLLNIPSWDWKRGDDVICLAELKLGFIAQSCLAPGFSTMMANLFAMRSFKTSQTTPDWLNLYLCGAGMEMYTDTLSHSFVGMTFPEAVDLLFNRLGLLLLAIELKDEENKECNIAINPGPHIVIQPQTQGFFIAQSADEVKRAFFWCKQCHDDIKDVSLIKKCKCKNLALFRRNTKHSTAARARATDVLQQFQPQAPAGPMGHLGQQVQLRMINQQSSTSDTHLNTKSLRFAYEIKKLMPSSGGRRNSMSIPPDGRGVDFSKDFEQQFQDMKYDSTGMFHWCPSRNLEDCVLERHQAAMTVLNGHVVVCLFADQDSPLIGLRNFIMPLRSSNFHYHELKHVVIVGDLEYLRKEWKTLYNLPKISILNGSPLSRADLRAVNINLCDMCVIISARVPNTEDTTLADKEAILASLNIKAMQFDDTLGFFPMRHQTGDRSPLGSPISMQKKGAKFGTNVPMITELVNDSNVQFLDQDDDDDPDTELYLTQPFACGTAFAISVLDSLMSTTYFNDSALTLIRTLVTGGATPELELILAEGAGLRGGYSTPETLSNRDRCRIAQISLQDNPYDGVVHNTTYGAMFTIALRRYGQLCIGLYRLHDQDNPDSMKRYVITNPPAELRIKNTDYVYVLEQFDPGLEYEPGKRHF
Method: Cells were cultured at 37° C. and 5% CO2 in MEMalpha with Gutamax I (Invitrogen, Nr.: 32571), supplemented with 10% (v/v) heat inactivated fetal bovine serum (Invitrogen, Nr.: 10500), G418 (1 mg/ml, Invitrogen, Nr.: 10131). Cells were detached using Accutase (Sigma, Nr.: A6964).
Membrane Potential Measurements
Laboratory compound testing was performed on 384-well microtiter plates (MTPs, Greiner, Nr.: 781092). 8000 cells/well were plated onto 384-well MTPs and cultured for 20 to 24 hours at 37° C. and 5% CO2. After removal of the cell culture medium, the cells were washed once with tyrode (150 mM NaCl, 0.3 mM KCl, 2 mM CaCl2, 1 mM MgCl2, 0.8 mM NaH2PO4, 5 mM Glucose, 28 mM Hepes, pH 7.4) and then loaded with the voltage sensitive dye of the Membrane Potential Assay Kit diluted in tyrode for 1 h at room temperature.
After starting the measurement of fluorescence using a FLIPR Tetra (Molecular Devices, Exc. 510-545 nm, Emm. 565-625 nm), test compounds were added followed by the addition of KCl tyrode (final assay concentration: 70 mM KCl, 2 mM CaCl2, 1 mM MgCl2, 0.8 mM NaH2PO4, 5 mM Glucose, 28 mM Hepes, pH 7.4, including the voltage sensitive dye). The measurement was completed after 7 minutes.

SMILES: CC(C)c1c(C(=O)N[C@H]2CCOc3ccccc32)sc2c(-c3cccc(Cl)c3)cccc12 [Example Compound S1-2, 7-(3-Chlorophenyl)-N-[(4S)-3,4-dihydro-2H-chromen-4-yl]-3-isopropyl-1-benzothiophene-2-carboxamide]
- EC50 [1]: > 0.08 mg/L
- EC50 [2]: 0.03 mg/L (≈ 0.0649 µM)
- EC50 (C. elegans Slo-1a): 0.00398 µM

SMILES: CC(C)c1c(C(=O)N[C@H]2CCOc3ccccc32)sc2c(-c3cccc(Cl)c3Cl)cccc12 [Example Compound S1-3, 7-(2,3-Dichlorophenyl)-N-[(4S)-3,4-dihydro-2H-chromen-4-yl]-3-isopropyl-1-benzothiophene-2-carboxamide]
- EC50 [1]: 0.03 mg/L (≈ 0.0604 µM)
- EC50 [2]: 0.01 mg/L (≈ 0.0201 µM)
- EC50 (C. elegans Slo-1a): 0.000631 µM

SMILES: COc1c(C(=O)N[C@H]2CCOc3ccccc32)sc2c(-c3cccc(Cl)c3Cl)cccc12 [Example Compound S1-11, 7-(2,3-Dichlorophenyl)-N-[(4S)-3,4-dihydro-2H-chromen-4-yl]-3-methoxy-1-benzothiophene-2-carboxamide]
- EC50 [1]: > 0.08 mg/L
- EC50 [2]: 0.04 mg/L (≈ 0.0826 µM)
- EC50 (C. elegans Slo-1a): 0.0316 µM

SMILES: CC(C)n1c(C(=O)N[C@H]2CCOc3ccccc32)cc2c(-c3cc(F)cc(F)c3F)cccc21 [Example Compound S2-6, N-[(4S)-3,4-Dihydro-2H-chromen-4-yl]-1-(propan-2-yl)-4-(2,3,5-trifluorophenyl)-1H-indole-2-carboxamide]
- EC50 [1]: 0.08 mg/L (≈ 0.172 µM)
- EC50 [2]: 0.0086 mg/L (≈ 0.0185 µM)
- EC50 (C. elegans Slo-1a): 0.0158 µM

SMILES: CC(C)c1c(C(=O)N[C@H]2CCOc3ccccc32)nc2c(-c3cccc(Cl)c3Cl)cccn12 [Example Compound S3-1, 8-(2,3-Dichlorophenyl)-N-[(4S)-3,4-dihydro-2H-chromen-4-yl]-3-(propan-2-yl)imidazo[1,2-a]pyridine-2-carboxamide]
- EC50 [2]: 0.63 mg/L (≈ 1.31 µM)
- EC50 (C. elegans Slo-1a): 0.251 µM

SMILES: O=C(N[C@H]1CCOc2ccccc21)c1cnc2c(cnn2-c2c(F)cccc2F)c1Cl [Example Compound S4-1, 4-Chloro-1-(2,6-difluorophenyl)-N-[(4S)-3,4-dihydro-2H-chromen-4-yl]-1H-pyrazolo[3,4-b]pyridine-5-carboxamide]
- EC50 [2]: 0.41 mg/L (≈ 0.93 µM)
- EC50 (C. elegans Slo-1a): 1.12 µM

SMILES: Cc1nn(-c2cc(Cl)cc(Cl)c2)c2ncc(C(=O)N[C@H]3CCOc4ccccc43)c(N(C)C)c12 [Example Compound S4-2, 1-(3,5-Dichlorophenyl)-N-[(4S)-3,4-dihydro-2H-chromen-4-yl]-4-(dimethylamino)-3-methyl-1H-pyrazolo[3,4-b]pyridine-5-carboxamide]
- EC50 [2]: > 2 mg/L
- EC50 (C. elegans Slo-1a): 2 µM

SMILES: Cc1nn(-c2c(F)cccc2F)c2ncc(C(=O)N[C@H]3CCOc4ccccc43)c(N(C)C)c12 [Example Compound S4-3, 1-(2,6-Difluorophenyl)-N-[(4S)-3,4-dihydro-2H-chromen-4-yl]-4-(dimethylamino)-3-methyl-1H-pyrazolo[3,4-b]pyridine-5-carboxamide]
- EC50 [2]: 1.82 mg/L (≈ 3.93 µM)
- EC50 (C. elegans Slo-1a): 0.158 µM

SMILES: CN(C)c1c(C(=O)N[C@H]2CCOc3ccccc32)cnc2c1cnn2-c1cc(Cl)cc(Cl)c1 [Example Compound S4-4, 1-(3,5-Dichlorophenyl)-N-[(4S)-3,4-dihydro-2H-chromen-4-yl]-4-(dimethylamino)-1H-pyrazolo[3,4-b]pyridine-5-carboxamide]
- EC50 [2]: > 2 mg/L
- EC50 (C. elegans Slo-1a): 0.501 µM

SMILES: CN(C)c1c(C(=O)N[C@H]2CCOc3ccccc32)cnc2c1cnn2-c1c(F)cccc1F [Example Compound S4-5, 1-(2,6-Difluorophenyl)-N-[(4S)-3,4-dihydro-2H-chromen-4-yl]-4-(dimethylamino)-1H-pyrazolo [3,4-b]pyridine-5-carboxamide]
- EC50 [2]: > 2 mg/L
- EC50 (C. elegans Slo-1a): 0.398 µM

SMILES: CC(C)c1c(C(=O)N[C@H]2CCc3ccccc32)ccc2c1nnn2-c1ccc(Cl)cc1 [Example Compound S4-6, 1-(4-Chlorophenyl)-N-[(1S)-2,3-dihydro-1H-inden-1-yl]-4-(propan-2-yl)-1H-benzotriazole-5-carboxamide]
- EC50 [2]: > 2 mg/L
- EC50 (C. elegans Slo-1a): 0.251 µM

SMILES: CC(C)c1c(C(=O)N[C@H]2CCc3ccccc32)ccc2c1nnn2-c1ccccc1 [Example Compound S4-7, N-[(1S)-2,3-Dihydro-1H-inden-1-yl]-1-phenyl-4-(propan-2-yl)-1H-benzotriazole-5-carboxamide]
- EC50 [2]: > 2 mg/L
- EC50 (C. elegans Slo-1a): 2 µM

SMILES: CC(C)c1c(C(=O)N[C@H]2CCc3ccccc32)ccc2c1nnn2-c1cccc(Cl)c1 [Example Compound S4-8, 1-(3-Chlorophenyl)-N-[(1S)-2,3-dihydro-1H-inden-1-yl]-4-(propan-2-yl)-1H-benzotriazole-5-carboxamide]
- EC50 [2]: > 2 mg/L
- EC50 (C. elegans Slo-1a): 10 µM

SMILES: CC(C)c1c(C(=O)N[C@H]2CCc3ccccc32)ccc2c1nnn2-c1cccc(C(F)(F)F)c1 [Example Compound S4-9, N-[(1S)-2,3-Dihydro-1H-inden-1-yl]-4-(propan-2-yl)-1-[3-(trifluoromethyl)phenyl]-1H-benzotriazole-5-carboxamide]
- EC50 [2]: > 2 mg/L
- EC50 (C. elegans Slo-1a): 1.58 µM

SMILES: CC(C)c1c(C(=O)N[C@H]2CCc3ccccc32)ccc2c1nnn2-c1ccccc1Cl [Example Compound S4-10, 1-(2-Chlorophenyl)-N-[(1S)-2,3-dihydro-1H-inden-1-yl]-4-(propan-2-yl)-1H-benzotriazole-5-carboxamide]
- EC50 [2]: > 2 mg/L
- EC50 (C. elegans Slo-1a): 3.16 µM

SMILES: CN(C)c1c(C(=O)N[C@H]2CCOc3ccccc32)cnc2c1n(C)c(=O)n2-c1cc(Cl)cc(Cl)c1 [Example Compound S5-1, 3-(3,5-Dichlorophenyl)-N-[(4S)-3,4-dihydro-2H-chromen-4-yl]-7-(dimethylamino)-1-methyl-2-oxo-2,3-dihydro-1H-imidazo[4,5-b]pyridine-6-carboxamide]
- EC50 [2]: 0.38 mg/L (≈ 0.742 µM)
- EC50 (C. elegans Slo-1a): 0.1 µM

SMILES: O=C(N[C@H]1CCOc2ccccc21)c1ccc2c(-c3cccc(Cl)c3Cl)cccc2c1 [Example Compound S6-1, 5-(2,3-Dichlorophenyl)-N-[(4S)-3,4-dihydro-2H-chromen-4-yl]naphthalene-2-carboxamide]
- EC50 [2]: 0.63 mg/L (≈ 1.41 µM)
- EC50 (C. elegans Slo-1a): 0.0794 µM

SMILES: O=C(N[C@H]1CCOc2ccccc21)c1ccc2c(-c3cccc(Cl)c3Cl)nccc2c1 [Example Compound S6-2, 1-(2,3-Dichlorophenyl)-N-[(4S)-3,4-dihydro-2H-chromen-4-yl]isoquinoline-6-carboxamide]
- EC50 [2]: > 2 mg/L
- EC50 (C. elegans Slo-1a): 0.794 µM

SMILES: O=C(N[C@H]1CCOc2ccccc21)c1cnc2c(ccc(=O)n2-c2cc(Cl)cc(Cl)c2)c1 [Example Compound S7-1, 8-(3,5-Dichlorophenyl)-N-[(4S)-3,4-dihydro-2H-chromen-4-yl]-7-oxo-7,8-dihydro-1,8-naphthyridine-3-carboxamide]
- EC50 [2]: 1.95 mg/L (≈ 4.18 µM)
- EC50 (C. elegans Slo-1a): 0.2 µM

SMILES: CN(C)c1c(C(=O)N[C@H]2CCOc3ccccc32)ncc2c1ccc(=O)n2Cc1ccc(Cl)cc1 [Example Compound S7-2, 1-(4-Chlorobenzyl)-N-[(4S)-3,4-dihydro-2H-chromen-4-yl]-5-(dimethylamino)-2-oxo-1,2-dihydro 1,7-naphthyridine-6-carboxamide]
- EC50 [2]: > 2 mg/L
- EC50 (C. elegans Slo-1a): 1 µM

SMILES: O=C(N[C@H]1CCOc2ccccc21)c1cc2cccc(-c3cccc(Cl)c3Cl)c2oc1=O [Example Compound S8a-3, 8-(2,3-Dichlorophenyl)-N-[(4S)-3,4-dihydro-2H-chromen-4-yl]-2-oxo-2H-chromene-3-carboxamide]
- EC50 [2]: 0.25 mg/L (≈ 0.536 µM)
- EC50 (C. elegans Slo-1a): 0.0501 µM

SMILES: O=C(N[C@H]1CCOc2ccccc21)C1=Cc2cccc(-c3cc(Cl)cc(Cl)c3)c2OC1 [Example Compound S8a-4, 8-(3,5-Dichlorophenyl)-N-[(4S)-3,4-dihydro-2H-chromen-4-yl]-2H-chromene-3-carboxamide]
- EC50 [2]: > 2 mg/L
- EC50 (C. elegans Slo-1a): 0.02 µM

SMILES: O=C(N[C@H]1CCOc2ccccc21)c1c(N2CCOCC2)c2cccc(-c3cc(Cl)cc(Cl)c3)c2[nH]c1=O [Example Compound S8a-6, 8-(3,5-Dichlorophenyl)-N-[(4S)-3,4-dihydro-2H-chromen-4-yl]-4-(morpholin-4-yl)-2-oxo-1,2-dihydroquinoline-3-carboxamide]
- EC50 [2]: 0.64 mg/L (≈ 1.16 µM)
- EC50 (C. elegans Slo-1a): 0.0398 µM

SMILES: CC1=C(C(=O)N[C@H]2CCc3ccccc32)C(C)c2cccc(-c3cc(Cl)cc(Cl)c3)c2O1 (stereo partly drawn) [Example Compound S8b-1, 8-(3,5-Dichlorophenyl)-N-[(1S)-2,3-dihydro-1H-inden-1-yl]-2,4-dimethyl-4H-chromene-3-carboxamide]
- EC50 [1]: > 0.4 mg/L
- EC50 [2]: 1.47 mg/L (≈ 3.17 µM)

SMILES: O=C(N[C@H]1CCOc2ccccc21)c1ccc2nc(-c3cccc(C(F)(F)F)c3Cl)cnc2c1 [Example Compound S9-1, 2-[2-Chloro-3-(trifluoromethyl)phenyl]-N-[(4S)-3,4-dihydro-2H-chromen-4-yl]quinoxaline-6-carboxamide]
- EC50 [2]: 0.52 mg/L (≈ 1.07 µM)
- EC50 (C. elegans Slo-1a): 0.02 µM

SMILES: O=C(N[C@H]1CCOc2ccccc21)c1ccc2nc(-c3ccccc3Cl)cnc2c1 [Example Compound S9-2, 2-(2-Chlorophenyl)-N-[(4S)-3,4-dihydro-2H-chromen-4-yl]quinoxaline-6-carboxamide]
- EC50 [2]: 1.95 mg/L (≈ 4.69 µM)
- EC50 (C. elegans Slo-1a): 0.631 µM

SMILES: O=C(N[C@H]1CCc2ccccc21)c1ccc2nc(-c3ccccc3Cl)cnc2c1 [Example Compound S9-3, 2-(2-Chlorophenyl)-N-[(1S)-2,3-dihydro-1H-inden-1-yl]quinoxaline-6-carboxamide]
- EC50 [2]: 0.61 mg/L (≈ 1.53 µM)
- EC50 (C. elegans Slo-1a): 0.1 µM

SMILES: O=C(N[C@H]1CCOc2ccccc21)c1ccc2nc(-c3cccc(Cl)c3Cl)cnc2c1 [Example Compound S9-4, 2-(2,3-Dichlorophenyl)-N-[(4S)-3,4-dihydro-2H-chromen-4-yl]quinoxaline-6-carboxamide]
- EC50 [2]: 0.32 mg/L (≈ 0.711 µM)
- EC50 (C. elegans Slo-1a): 0.02 µM

SMILES: O=C(N[C@H]1CCc2ccccc21)c1ccc2nc(-c3cccc(Cl)c3Cl)cnc2c1 [Example Compound S9-5, 2-(2,3-Dichlorophenyl)-N-[(1S)-2,3-dihydro-1H-inden-1-yl]quinoxaline-6-carboxamide]
- EC50 [2]: 0.37 mg/L (≈ 0.852 µM)
- EC50 (C. elegans Slo-1a): 0.0316 µM

SMILES: O=C(N[C@H]1CCc2ccccc21)c1ccc2nc(-c3cccc(C(F)(F)F)c3Cl)cnc2c1 [Example Compound S9-6, 2-[2-Chloro-3-(trifluoromethyl)phenyl]-N-[(1S)-2,3-dihydro-1H-inden-1-yl]quinoxaline-6-carboxamide]
- EC50 [2]: 0.44 mg/L (≈ 0.94 µM)
- EC50 (C. elegans Slo-1a): 0.0316 µM

Source: patent US12435068B2, “Anthelmintic compounds” (Elanco Animal Health GmBh, priority 2018, dated 2025)
